# Measurements: patent publication US11331369B2, “Endoparasitic depsipeptides” (Zoetis Services LLC, priority 2017, dated 2022)
# Legend:
# [1] = system: microfilariae of Dirofilaria immitis; assay: Dirofilaria immitis, Microfilaria (DiMF) In vitro Assay; format: cell-based; details: 72 h, read-out: DiMF Minimum Effective Dose (MED), approximately 72 hours incubation, microfilariae assessed for survival or paralysis
# [2] = system: 4th stage larvae (L4) of Dirofilaria immitis; assay: Dirofilaria immitis, L4 Stage (DiL4) In Vitro Assay; format: cell-based; details: Dirofilaria immitis, 72 h, read-out: DiL4 Minimum Effective Dose (MED), approximately 72 hours incubation; L4 larvae assessed for survival or paralysis
# [3] = Canine pharmacokinetic (PK) study, single IV or oral dose; details: dog; for Vd / clearance / half-life / Cmax: in vivo; for F: oral 1 mg/kg
# [4] = system: third stage larvae of Haemonchus contortus; assay: Haemonchus contortus L3 (HcL3) Assay; format: cell-based; details: 96 h, read-out: HcL3 Minimum Effective Dose (MED)
compound,measurement,setting,value
"CC(C)C[C@H]1C(=O)O[C@H](Cc2ccc(Cn3ccc(C(F)(F)F)n3)cc2)C(=O)N(C)[C@@H](CC(C)C)C(=O)O[C@H](C)C(=O)N(C)[C@@H](CC(C)C)C(=O)O[C@H](Cc2ccc(Cn3ccc(C(F)(F)F)n3)cc2)C(=O)N(C)[C@@H](CC(C)C)C(=O)O[C@H](C)C(=O)N1C [Example 1b-69, (3S,6R,9S,12R,15S,18R,21S,24R)-3,9,15,21-tetraisobutyl-4,6,10,16,18,22-hexamethyl-12,24-bis(4-((3-(trifluoromethyl)-1H-pyrazol-1-yl)methyl)benzyl)-1,7,13,19-tetraoxa-4,10,16,22-tetraazacyclotetracosan-2,5,8,11,14,17,20,23-octaone]",minimal effective concentration,[1],0.01 to 0.1 µM
same,minimal effective concentration,[2],0.001 to 0.01 µM
same,Vd,"[3]; iv, 0.2 mg/kg",3.81 L/kg
same,clearance,"[3]; iv, 0.2 mg/kg",1 mL/min/kg
same,half-life,"[3]; iv, 0.2 mg/kg",256 h
same,Cmax,"[3]; po, 1 mg/kg",27 ng/mL
same,F,[3],5%
"CC(C)C[C@H]1C(=O)O[C@H](Cc2ccc(CN3CCOc4ccccc43)cc2)C(=O)N(C)[C@@H](CC(C)C)C(=O)O[C@H](C)C(=O)N(C)[C@@H](CC(C)C)C(=O)O[C@H](Cc2ccc(CN3CCOc4ccccc43)cc2)C(=O)N(C)[C@@H](CC(C)C)C(=O)O[C@H](C)C(=O)N1C [Example 9-26, (3S,6R,9S,12R,15S,18R,21S,24R)-6,18-bis(4-((2,3-dihydro-4H-benzo[b][1,4]oxazin-4-yl)methyl)benzyl)-3,9,15,21-tetraisobutyl-4,10,12,16,22,24-hexamethyl-1,7,13,19-tetraoxa-4,10,16,22-tetraazacyclotetracosan-2,5,8,11,14,17,20,23-octaone]",minimal effective concentration,[2],0.0001 to 0.001 µM
same,Vd,"[3]; iv, 0.2 mg/kg",0.6 L/kg
same,clearance,"[3]; iv, 0.2 mg/kg",0.1 mL/min/kg
same,half-life,"[3]; iv, 0.2 mg/kg",106 h
same,Cmax,"[3]; po, 1 mg/kg",71 ng/mL
same,F,[3],1%
"CC(C)C[C@H]1C(=O)O[C@H](Cc2ccc(Cn3nc(C(F)(F)F)cc3C(F)(F)F)cc2)C(=O)N(C)[C@@H](CC(C)C)C(=O)O[C@H](C)C(=O)N(C)[C@@H](CC(C)C)C(=O)O[C@H](Cc2ccc(Cn3nc(C(F)(F)F)cc3C(F)(F)F)cc2)C(=O)N(C)[C@@H](CC(C)C)C(=O)O[C@H](C)C(=O)N1C [Example 1b-15, (3S,6R,9S,12R,15S,18R,21S,24R)-6,18-bis[(4-{[3,5-bis(trifluoromethyl)-1H-pyrazol-1-yl]methyl}phenyl)methyl]-4,10,12,16,22,24-hexamethyl-3,9,15,21-tetrakis(2-methylpropyl)-1,7,13,19-tetraoxa-4,10,16,22-tetraazacyclotetracosan-2,5,8,11,14,17,20,23-octaone]",minimal effective concentration,[1],0.01 to 0.1 µM
same,minimal effective concentration,[2],≤ 0.0001 µM
same,Vd,"[3]; iv, 0.2 mg/kg",0.32 L/kg
same,clearance,"[3]; iv, 0.2 mg/kg",0.05 mL/min/kg
same,half-life,"[3]; iv, 0.2 mg/kg",67 h
same,Cmax,"[3]; po, 1 mg/kg",5 ng/mL
same,F,[3],0.2%
"CC(C)C[C@H]1C(=O)O[C@H](Cc2ccc(Cn3cc(OC(C)C)cn3)cc2)C(=O)N(C)[C@@H](CC(C)C)C(=O)O[C@H](C)C(=O)N(C)[C@@H](CC(C)C)C(=O)O[C@H](Cc2ccc(Cn3cc(OC(C)C)cn3)cc2)C(=O)N(C)[C@@H](CC(C)C)C(=O)O[C@H](C)C(=O)N1C [Example 1b-19, (3S,6R,9S,12R,15S,18R,21S,24R)-3,9,15,21-tetraisobutyl-6,18-bis[[4-[(4-isopropoxypyrazol-1-yl)methyl]phenyl]methyl]-4,10,12,16,22,24-hexamethyl-1,7,13,19-tetraoxa-4,10,16,22-tetrazacyclotetracosane-2,5,8,11,14,17,20,23-octaone]",minimal effective concentration,[1],0.001 to 0.01 µM
same,minimal effective concentration,[2],0.001 to 0.01 µM
same,minimal effective concentration,[4],1 to 10 µM
same,Vd,"[3]; iv, 0.2 mg/kg",7.25 L/kg
same,clearance,"[3]; iv, 0.2 mg/kg",2.4 mL/min/kg
same,half-life,"[3]; iv, 0.2 mg/kg",87 h
same,Cmax,"[3]; po, 1 mg/kg",267 ng/mL
same,F,[3],24%
"CC(C)C[C@H]1C(=O)O[C@H](Cc2ccc(Cn3cccn3)cc2)C(=O)N(C)[C@@H](CC(C)C)C(=O)O[C@H](C)C(=O)N(C)[C@@H](CC(C)C)C(=O)O[C@H](Cc2ccc(Cn3cccn3)cc2)C(=O)N(C)[C@@H](CC(C)C)C(=O)O[C@H](C)C(=O)N1C [Example 1b-23, (3S,6R,9S,12R,15S,18R,21S,24R)-3,9,15,21-tetraisobutyl-4,6,10,16,18,22-hexamethyl-12,24-bis[[4-(pyrazol-1-ylmethyl)phenyl]methyl]-1,7,13,19-tetraoxa-4,10,16,22-tetrazacyclotetracosane-2,5,8,11,14,17,20,23-octaone]",minimal effective concentration,[2],0.0001 to 0.001 µM
same,minimal effective concentration,[4],≤ 1 µM
same,Vd,"[3]; iv, 0.2 mg/kg",8.54 L/kg
same,clearance,"[3]; iv, 0.2 mg/kg",14 mL/min/kg
same,half-life,"[3]; iv, 0.2 mg/kg",27 h
same,Cmax,"[3]; po, 1 mg/kg",205 ng/mL
same,F,[3],34%
"CC(C)C[C@H]1C(=O)O[C@H](Cc2ccc(Cn3cc(C4CC4)cn3)cc2)C(=O)N(C)[C@@H](CC(C)C)C(=O)O[C@H](C)C(=O)N(C)[C@@H](CC(C)C)C(=O)O[C@H](Cc2ccc(Cn3cc(C4CC4)cn3)cc2)C(=O)N(C)[C@@H](CC(C)C)C(=O)O[C@H](C)C(=O)N1C [Example 1b-45, (3S,6R,9S,12R,15S,18R,21S,24R)-6,18-bis(4-((4-cyclopropyl-1H-pyrazol-1-yl)methyl)benzyl)-3,9,15,21-tetraisobutyl-4,10,12,16,22,24-hexamethyl-1,7,13,19-tetraoxa-4,10,16,22-tetraazacyclotetracosan-2,5,8,11,14,17,20,23-octaone]",minimal effective concentration,[1],0.01 to 0.1 µM
same,Cmax,"[3]; po, 1 mg/kg",127 ng/mL
same,half-life,"[3]; po, 1 mg/kg",104 h
"CCOc1cnn(Cc2ccc(C[C@H]3OC(=O)[C@H](CC(C)C)N(C)C(=O)[C@@H](C)OC(=O)[C@H](CC(C)C)N(C)C(=O)[C@@H](Cc4ccc(Cn5cc(OCC)cn5)cc4)OC(=O)[C@H](CC(C)C)N(C)C(=O)[C@@H](C)OC(=O)[C@H](CC(C)C)N(C)C3=O)cc2)c1 [Example 1b-21, (3S,6R,9S,12R,15S,18R,21S,24R)-6,18-bis[[4-[(4-ethoxypyrazol-1-yl)methyl]phenyl]methyl]-3,9,15,21-tetraisobutyl-4,10,12,16,22,24-hexamethyl-1,7,13,19-tetraoxa-4,10,16,22-tetrazacyclotetracosane-2,5,8,11,14,17,20,23-octaone]",minimal effective concentration,[1],0.001 to 0.01 µM
same,minimal effective concentration,[2],0.0001 to 0.001 µM
same,minimal effective concentration,[4],1 to 10 µM
same,Vd,"[3]; iv, 0.2 mg/kg",28.4 L/kg
same,clearance,"[3]; iv, 0.2 mg/kg",15.5 mL/min/kg
same,half-life,"[3]; iv, 0.2 mg/kg",36.1 h
same,Cmax,"[3]; po, 1 mg/kg",145 ng/mL
same,F,[3],78%
"CC(C)C[C@H]1C(=O)O[C@H](Cc2ccc(C3(n4cc(Cl)cn4)CCC3)cc2)C(=O)N(C)[C@@H](CC(C)C)C(=O)O[C@H](C)C(=O)N(C)[C@@H](CC(C)C)C(=O)O[C@H](Cc2ccc(C3(n4cc(Cl)cn4)CCC3)cc2)C(=O)N(C)[C@@H](CC(C)C)C(=O)O[C@H](C)C(=O)N1C [Example 1c-2, (3S,6R,9S,12R,15S,18R,21S,24R)-6,18-bis(4-(1-(4-chloro-1H-pyrazol-1-yl)cyclobutyl)benzyl)-3,9,15,21-tetraisobutyl-4,10,12,16,22,24-hexamethyl-1,7,13,19-tetraoxa-4,10,16,22-tetraazacyclotetracosan-2,5,8,11,14,17,20,23-octaone]",minimal effective concentration,[1],0.001 to 0.01 µM
same,minimal effective concentration,[2],≤ 0.0001 µM
same,minimal effective concentration,[4],≤ 1 µM
"CC(C)C[C@H]1C(=O)O[C@H](Cc2ccc(Cn3nccc3C3(F)CC3)cc2)C(=O)N(C)[C@@H](CC(C)C)C(=O)O[C@H](C)C(=O)N(C)[C@@H](CC(C)C)C(=O)O[C@H](Cc2ccc(Cn3nccc3C3(F)CC3)cc2)C(=O)N(C)[C@@H](CC(C)C)C(=O)O[C@H](C)C(=O)N1C [Example 1b-215, (3S,6R,9S,12R,15S,18R,21S,24R)-6,18-bis(4-((5-(1-fluorocyclopropyl)-1H-pyrazol-1-yl)methyl)benzyl)-3,9,15,21-tetraisobutyl-4,10,12,16,22,24-hexamethyl-1,7,13,19-tetraoxa-4,10,16,22-tetraazacyclotetracosan-2,5,8,11,14,17,20,23-octaone]",minimal effective concentration,[1],0.001 to 0.01 µM
same,minimal effective concentration,[2],0.0001 to 0.001 µM
same,minimal effective concentration,[4],≤ 1 µM
"CC(C)C[C@H]1C(=O)O[C@H](Cc2ccc(Cn3nccc3C3(C)COC3)cc2)C(=O)N(C)[C@@H](CC(C)C)C(=O)O[C@H](C)C(=O)N(C)[C@@H](CC(C)C)C(=O)O[C@H](Cc2ccc(Cn3nccc3C3(C)COC3)cc2)C(=O)N(C)[C@@H](CC(C)C)C(=O)O[C@H](C)C(=O)N1C [Example 1b-221, (3S,6R,9S,12R,15S,18R,21S,24R)-3,9,15,21-tetraisobutyl-4,6,10,16,18,22-hexamethyl-12,24-bis(4-((5-(3-methyloxetan-3-yl)-1H-pyrazol-1-yl)methyl)benzyl)-1,7,13,19-tetraoxa-4,10,16,22-tetraazacyclotetracosan-2,5,8,11,14,17,20,23-octaone]",minimal effective concentration,[1],0.001 to 0.01 µM
same,minimal effective concentration,[2],0.001 to 0.01 µM
same,minimal effective concentration,[4],1 to 10 µM
"CC(C)C[C@H]1C(=O)O[C@H](Cc2ccc(Cn3ccc(-c4ccccc4)n3)cc2)C(=O)N(C)[C@@H](CC(C)C)C(=O)O[C@H](C)C(=O)N(C)[C@@H](CC(C)C)C(=O)O[C@H](Cc2ccc(Cn3ccc(-c4ccccc4)n3)cc2)C(=O)N(C)[C@@H](CC(C)C)C(=O)O[C@H](C)C(=O)N1C [Example 1b-68, (3S,6R,9S,12R,15S,18R,21S,24R)-3,9,15,21-tetraisobutyl-4,6,10,16,18,22-hexamethyl-12,24-bis(4-((3-phenyl-1H-pyrazol-1-yl)methyl)benzyl)-1,7,13,19-tetraoxa-4,10,16,22-tetraazacyclotetracosan-2,5,8,11,14,17,20,23-octaone]",minimal effective concentration,[2],0.001 to 0.01 µM
same,Vd,"[3]; iv, 0.2 mg/kg",7.58 L/kg
same,clearance,"[3]; iv, 0.2 mg/kg",1 mL/min/kg
same,half-life,"[3]; iv, 0.2 mg/kg",163 h
same,Cmax,"[3]; po, 1 mg/kg",39 ng/mL
same,F,[3],4%
